Values belong to the molecule of their own block, whether it stands above or below them. Residues, ends and D or L forms follow the SMILES beside them. *: point of attachment. Cbz = O=C(OCc1ccccc1)*; CH2F = FC*
Legend:
[1] = biological target: T1, caspase-3 (Homo sapiens, UniProt P42574); experiment: Screening protease inhibitors by BRET-approach of AbRGT in 96 well plates, caspase-3 RLuc transfected MCF-7 cells; assay type: cell-based
T1 construct: expressed in transfected cells; host or cells: MCF-7 (caspase-3 null); 2 in A4
T1 sequence (P42574 29-175 limits assumed): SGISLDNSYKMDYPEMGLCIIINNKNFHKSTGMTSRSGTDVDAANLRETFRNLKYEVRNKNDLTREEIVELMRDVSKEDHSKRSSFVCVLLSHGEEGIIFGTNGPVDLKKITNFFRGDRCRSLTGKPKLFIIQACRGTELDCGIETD
T1 sequence (P42574 176-277 limits assumed): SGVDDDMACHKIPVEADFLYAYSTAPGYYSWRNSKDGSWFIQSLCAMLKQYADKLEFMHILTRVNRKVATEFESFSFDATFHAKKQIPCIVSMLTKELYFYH
Source text: To show BRET-approach of AbRGT can be used for the high-throughput screening of inhibitors four different inhibitors; Z-VAD-FMK, C-inhibitor-II, E-64, and Q-VD-OPh were selected. Z-VAD-FMK, E-64, and Q-VD-OPh are irreversible inhibitors, while cpm-VAD-CHO is a reversible inhibitor. Z-VAD-FMK and Q-VD-OPh are widely known pan-caspase inhibitors that inhibit caspases with a different mechanism.
For inhibitor screening in a high-throughput format, caspase-3 RLuc transfected MCF-7 cells in 96 well plates were treated with STS (1 μM) for 4 h. Subsequently, after STS treatment, cells were incubated with Z-VAD-FMK or E64 or Q-VD-OPh inhibitors at two different concentrations (25 or 50 μM) for 1 h. Cells were then labeled with the Rh-VAD-FMK probe for 1 h, followed by the addition of coelenterazine h. Immediately after coelenterazine h addition, average radiance was recorded in the donor emission and the acceptor emission channel. The BRET measurements were done by calculating the mBRET values of each sample.

[2] = system: caspase-3; experiment: Quantification of caspase-3 activation using BRET-approach of AbRGT in MCF-7 cells transiently transfected with pCMV-caspase-3-GGSRLuc 8.6; assay type: cell-based, human; conditions: STS 1 μM for 4 h; transiently transfected MCF-7 cells; Rh-VAD-FMK probe; untreated control 11±9.2
Method: To determine the specific caspase-3 activation, pCMV-caspase-3-GGSRLuc 8.6 plasmid was overexpressed in the MCF-7 cell line since it is caspase-3 null. The cells were subjected to treatment with Staurosporine (STS) (1 μM) for 4 h for the induction of apoptosis. […] Subsequently, cells were incubated with ABFP, Rh-VAD-FMK probe (BRET acceptor) for the labeling of PoI, and other proteases of the same family. The RLuc 8.6 substrate coelenterazine h was added to the cells, and the average radiance was recorded in the donor emission channel, RLuc 8.6 (520-540 nm), and the acceptor emission channel, rhodamine (580-600 nm) channel. The BRET measurements were done by calculating the mBRET values for the STS treated versus untreated samples using the following equation.^7 Here, acceptor and donor is represented by (A) and (D), respectively.

[3] = system: caspase-3; experiment: Quantification of caspase-3 activation in Caspase-3 RLuc expressing stable MCF-7 clone no. 2 by BRET-approach of AbRGT; assay type: cell-based, human
Method: Luciferase activity in the MCF7 Caspase3-GGS-RLuc8.6 clone no. 2, 3, 4 was measured by the addition of luciferase substrate, coelentrazine. Immediately after substrate addition, average radiance value was recorded and plotted as a bar graph (FIG. 4.8). […] The caspase-3 activity in the clone 2 cells further quantified by the BRET-approach of AbRGT. MCF-7 Caspase3-GGS-RLuc8.6 clone no. 2 cells were treated with increasing concentration (0, 50, 100, and 200 nM) of STS for 4 h. Subsequently, cells were incubated with Rh-VAD-FMK probe for 1 h followed by the addition of coelentrazine h. Immediately after substrate addition, average radiance was recorded at donor and acceptor filters and the mBRET values were calculated and plotted as a bar graph (FIG. 9).

[4] = biological target: T1, caspase-3; experiment: Effect of protease inhibitor on STS dependent caspase activation (BRET based AbRGT, Rh-VAD-FMK probe); assay type: cell-based; conditions: STS 0-4 μM followed by 1 h treatment with 50 μM Z-VAD-FMK; transiently transfected cells
Method: To check the effect of protease inhibitor Z-VAD-FMK on caspase activation, the pCMV-caspase-3-GGS-RLuc8.6 transiently transfected cells were treated with increasing concentration of STS(0-4 μM) followed by 1 h treatment of 50 μM of Z-VAD-FMK. The caspase3 activation was checked by BRET based AbRGT approach by using Rh-VAD-FMK probe. […] Thus we can use the BRET-approach of AbRGT to screen caspase inhibitors and activators. (FIG. 6).

mBRET values as compared to Z-VAD-FMK inhibitor ([1]; STS 1 μM 4 h, then inhibitor 25 or 50 μM for 1 h): higher
SMILES: CC(C)[C@H](NC(=O)c1ccc2ccccc2n1)C(=O)N[C@@H](CC(=O)O)C(=O)COc1c(F)cccc1F [Q-VD-OPh]

SMILES: CN[C@@H]1C[C@H]2O[C@@](C)([C@@H]1OC)n1c3ccccc3c3c4c(c5c6ccccc6n2c5c31)C(=O)NC4 [STS, Staurosporine]
mBRET value of the sample in the absence of inhibitor ([1]; STS 1 μM for 4 h, no inhibitor, 96 well plate): 60±0.4
mBRET value (indirect readout of specific caspase-3 activation) [2]: 60±0.4
change of mBRET values with increasing STS concentration ([3]; 0, 50, 100 and 200 nM STS for 4 h, clone no. 2): increase
increase in mBRET as compared to the untreated cells ([3]; 200 nM STS for 4 h, MCF-7 Caspase3-GGS-RLuc8.6 clone no. 2): ~4 fold

effect on caspase activation in presence of STS compared to only STS treated cells [4]: inhibits the caspase activation
SMILES: COC(=O)C[C@H](NC(=O)[C@H](C)NC(=O)[C@@H](NC(=O)OCc1ccccc1)C(C)C)C(=O)CF [Z-VAD-FMK] (Cbz-Val-Ala-Asp(OMe)-CH2F)
